Laboratory results taken from PubChem BioAssay (NCI).
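Test compounds were applied to cells in 96-well plates for 48 hours at 5 doses. TGI is the concentration that stops growth completely.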

Columns and labels:
Test in all cases: inhibition of tumour cell growth, NCI panel, 48 h
MDA-N = test system: MDA-N
T-47D breast = test system: T-47D breast
NCI/ADR-RES ovarian = test system: NCI/ADR-RES ovarian
HCT-116 colon = test system: HCT-116 colon
MDA-MB-435 = test system: MDA-MB-435
DU-145 prostate = test system: DU-145 prostate
SK-MEL-28 melanoma = test system: SK-MEL-28 melanoma
UO-31 renal = test system: UO-31 renal
SNB-75 CNS = test system: SNB-75 CNS
MOLT-4 leukemia = test system: MOLT-4 leukemia
NCI-H460 lung = test system: NCI-H460 lung
CCRF-CEM leukemia = test system: CCRF-CEM leukemia
SNB-19 CNS = test system: SNB-19 CNS
MDA-MB-231 breast = test system: MDA-MB-231 breast
U251 CNS = test system: U251 CNS
SW-620 colon = test system: SW-620 colon
HOP-62 NSCLC = test system: HOP-62 NSCLC
HOP-92 NSCLC = test system: HOP-92 NSCLC

## CCOC(=O)/C=C(/C(=O)OCC)n1ccc(=O)n(/C(=C/C(=O)OCC)C(=O)OCC)c1=O
MDA-N
  TGI: 26.7 µM
T-47D breast
  TGI: 15.9 µM
NCI/ADR-RES ovarian
  TGI: 55.3 µM
HCT-116 colon
  TGI: 6.88 µM
MDA-MB-435
  TGI: 22.1 µM
DU-145 prostate
  TGI: 34.9 µM
SK-MEL-28 melanoma
  TGI: 27.9 µM
UO-31 renal
  TGI: 28.9 µM
SNB-75 CNS
  TGI: 32.6 µM
MOLT-4 leukemia
  TGI: 3.84 µM
NCI-H460 lung
  TGI: 34.3 µM
CCRF-CEM leukemia
  TGI: 3.53 µM
SNB-19 CNS
  TGI: 38.3 µM
MDA-MB-231 breast
  TGI: 31.9 µM
U251 CNS
  TGI: 29.4 µM
SW-620 colon
  TGI: 4.07 µM
HOP-62 NSCLC
  TGI: 46.9 µM
HOP-92 NSCLC
  TGI: 4.11 µM

## COC(=O)[C@@H]1C[C@H]([Se]c2ccccc2)CN1C(=O)OCc1ccccc1
MDA-N
  TGI: 68.2 µM
T-47D breast
  TGI: > 100 µM
NCI/ADR-RES ovarian
  TGI: > 100 µM
HCT-116 colon
  TGI: > 100 µM
MDA-MB-435
  TGI: 65 µM
DU-145 prostate
  TGI: > 100 µM
SK-MEL-28 melanoma
  TGI: 69.2 µM
UO-31 renal
  TGI: 95.3 µM
SNB-75 CNS
  TGI: > 100 µM
MOLT-4 leukemia
  TGI: 66.8 µM
NCI-H460 lung
  TGI: 86.1 µM
CCRF-CEM leukemia
  TGI: > 100 µM
SNB-19 CNS
  TGI: > 100 µM
MDA-MB-231 breast
  TGI: > 100 µM
U251 CNS
  TGI: > 100 µM
SW-620 colon
  TGI: > 100 µM
HOP-62 NSCLC
  TGI: > 100 µM
HOP-92 NSCLC
  TGI: > 100 µM

## CC1OC(OC2C(O)COC(OC3C(C)OC(OC4C(OC(=O)[C@]56CCC(C)(C)C[C@@H]5C5=CCC7[C@@]8(C)C[C@H](O)[C@H](OC9OC(CO)C(O)C(OC%10OC(CO)C(O)C(O)C%10O)C9O)[C@@](C)(CO)[C@@H]8CC[C@@]7(C)[C@]5(C)CC6)OCC(O)C4O)C(O)C3O)C2O)C(O)C(O)C1O (stereo not given in full)
MDA-N
  TGI: 32 µM
T-47D breast
  TGI: 35.5 µM
NCI/ADR-RES ovarian
  TGI: 31.9 µM
HCT-116 colon
  TGI: 32.7 µM
MDA-MB-435
  TGI: 42.1 µM
DU-145 prostate
  TGI: 29 µM
SK-MEL-28 melanoma
  TGI: 22.9 µM
UO-31 renal
  TGI: 16 µM
SNB-75 CNS
  TGI: 35 µM
MOLT-4 leukemia
  TGI: 36.5 µM
NCI-H460 lung
  TGI: 40.2 µM
CCRF-CEM leukemia
  TGI: 32.6 µM
SNB-19 CNS
  TGI: 30.4 µM
MDA-MB-231 breast
  TGI: 31.2 µM
U251 CNS
  TGI: 32.8 µM
SW-620 colon
  TGI: 30.4 µM
HOP-62 NSCLC
  TGI: 28.8 µM
HOP-92 NSCLC
  TGI: 38.4 µM

## COc1cc2c(cc1O)[C@@H]1Cc3c(cc(OC)c(OC)c3Oc3cc4c(cc3OC)CCN(C)[C@@H]4Cc3ccc(O)cc3)[C@H](C2)N1C
MDA-N
  TGI: 38.3 µM
T-47D breast
  TGI: > 100 µM
NCI/ADR-RES ovarian
  TGI: > 100 µM
HCT-116 colon
  TGI: > 100 µM
MDA-MB-435
  TGI: 40.8 µM
DU-145 prostate
  TGI: > 100 µM
SK-MEL-28 melanoma
  TGI: 34.9 µM
UO-31 renal
  TGI: > 100 µM
SNB-75 CNS
  TGI: > 80 µM
MOLT-4 leukemia
  TGI: > 90.5 µM
NCI-H460 lung
  TGI: > 100 µM
CCRF-CEM leukemia
  TGI: > 72.1 µM
SNB-19 CNS
  TGI: > 100 µM
MDA-MB-231 breast
  TGI: 98.2 µM
U251 CNS
  TGI: > 100 µM
SW-620 colon
  TGI: > 100 µM
HOP-62 NSCLC
  TGI: > 100 µM
HOP-92 NSCLC
  TGI: > 100 µM

## C[C@]12[C@@H]3CC[C@H]1[C@@H](OC(=O)Nc1cc([N+](=O)[O-])cc([N+](=O)[O-])c1)C(=O)N2CC3
MDA-N
  TGI: > 100 µM
T-47D breast
  TGI: > 100 µM
NCI/ADR-RES ovarian
  TGI: > 100 µM
HCT-116 colon
  TGI: > 100 µM
MDA-MB-435
  TGI: > 100 µM
DU-145 prostate
  TGI: > 100 µM
SK-MEL-28 melanoma
  TGI: > 100 µM
UO-31 renal
  TGI: > 100 µM
SNB-75 CNS
  TGI: > 100 µM
MOLT-4 leukemia
  TGI: > 100 µM
NCI-H460 lung
  TGI: > 100 µM
CCRF-CEM leukemia
  TGI: > 100 µM
SNB-19 CNS
  TGI: > 100 µM
MDA-MB-231 breast
  TGI: > 100 µM
U251 CNS
  TGI: > 100 µM
SW-620 colon
  TGI: > 100 µM
HOP-62 NSCLC
  TGI: > 100 µM
HOP-92 NSCLC
  TGI: > 100 µM

## CCS(=O)(=O)CCn1cnc2c1c(=O)n(C)c(=O)n2C
MDA-N
  TGI: > 100 µM
T-47D breast
  TGI: > 100 µM
NCI/ADR-RES ovarian
  TGI: > 100 µM
HCT-116 colon
  TGI: > 100 µM
MDA-MB-435
  TGI: > 100 µM
DU-145 prostate
  TGI: > 100 µM
SK-MEL-28 melanoma
  TGI: > 100 µM
UO-31 renal
  TGI: > 100 µM
SNB-75 CNS
  TGI: > 100 µM
MOLT-4 leukemia
  TGI: > 100 µM
NCI-H460 lung
  TGI: > 100 µM
CCRF-CEM leukemia
  TGI: > 100 µM
SNB-19 CNS
  TGI: > 100 µM
MDA-MB-231 breast
  TGI: > 100 µM
U251 CNS
  TGI: > 100 µM
SW-620 colon
  TGI: > 100 µM
HOP-62 NSCLC
  TGI: > 100 µM
HOP-92 NSCLC
  TGI: > 100 µM

## COc1c(O)c2c(=O)cc(OC)c3c4c(OC)cc(=O)c5c(O)c(OC)c6c(c(c1C(C(C)=O)C6C(C)O)c23)c54 (stereo not given)
MDA-N
  TGI: 2.34 µM
T-47D breast
  TGI: 1.64 µM
NCI/ADR-RES ovarian
  TGI: 1.58 µM
HCT-116 colon
  TGI: 3.06 µM
MDA-MB-435
  TGI: 3.1 µM
DU-145 prostate
  TGI: 1.74 µM
SK-MEL-28 melanoma
  TGI: 3.3 µM
UO-31 renal
  TGI: 1.03 µM
SNB-75 CNS
  TGI: 1.42 µM
MOLT-4 leukemia
  TGI: 0.443 µM
NCI-H460 lung
  TGI: 0.688 µM
CCRF-CEM leukemia
  TGI: 1.16 µM
SNB-19 CNS
  TGI: 0.413 µM
MDA-MB-231 breast
  TGI: 1.88 µM
U251 CNS
  TGI: 0.603 µM
SW-620 colon
  TGI: 0.469 µM
HOP-62 NSCLC
  TGI: 0.632 µM
HOP-92 NSCLC
  TGI: 1.4 µM

## S=c1sc2nc(Cl)nc(Cl)c2s1
MDA-N
  TGI: 24.8 µM
T-47D breast
  TGI: 31.9 µM
NCI/ADR-RES ovarian
  TGI: 38.2 µM
HCT-116 colon
  TGI: 26 µM
MDA-MB-435
  TGI: 22.4 µM
DU-145 prostate
  TGI: 30.9 µM
SK-MEL-28 melanoma
  TGI: 30.4 µM
UO-31 renal
  TGI: 25.1 µM
SNB-75 CNS
  TGI: 34.8 µM
MOLT-4 leukemia
  TGI: > 29.3 µM
NCI-H460 lung
  TGI: 30.8 µM
CCRF-CEM leukemia
  TGI: > 46.6 µM
SNB-19 CNS
  TGI: 34.8 µM
MDA-MB-231 breast
  TGI: 24.7 µM
U251 CNS
  TGI: 21.3 µM
SW-620 colon
  TGI: 21.1 µM
HOP-62 NSCLC
  TGI: 36.9 µM
HOP-92 NSCLC
  TGI: 17.4 µM

## COc1cc2cc(C(=O)N3CC(CCl)c4ccccc43)[nH]c2c(OC)c1OC (stereo not given)
MDA-N
  TGI: > 100 µM
T-47D breast
  TGI: > 89.4 µM
NCI/ADR-RES ovarian
  TGI: > 100 µM
HCT-116 colon
  TGI: > 100 µM
MDA-MB-435
  TGI: > 100 µM
DU-145 prostate
  TGI: > 100 µM
SK-MEL-28 melanoma
  TGI: > 100 µM
UO-31 renal
  TGI: > 100 µM
SNB-75 CNS
  TGI: > 100 µM
MOLT-4 leukemia
  TGI: > 100 µM
NCI-H460 lung
  TGI: > 57.4 µM
CCRF-CEM leukemia
  TGI: > 100 µM
SNB-19 CNS
  TGI: > 100 µM
MDA-MB-231 breast
  TGI: > 100 µM
U251 CNS
  TGI: > 100 µM
SW-620 colon
  TGI: > 100 µM
HOP-62 NSCLC
  TGI: > 92.1 µM
HOP-92 NSCLC
  TGI: > 100 µM

## O=[N+]([O-])/C(C(Cl)=C(Cl)Cl)=C(/Sc1ccccc1)N1CCCCC1
MDA-N
  TGI: > 100 µM
T-47D breast
  TGI: > 100 µM
NCI/ADR-RES ovarian
  TGI: > 100 µM
HCT-116 colon
  TGI: > 100 µM
MDA-MB-435
  TGI: > 100 µM
DU-145 prostate
  TGI: > 100 µM
SK-MEL-28 melanoma
  TGI: > 100 µM
UO-31 renal
  TGI: > 100 µM
SNB-75 CNS
  TGI: > 100 µM
MOLT-4 leukemia
  TGI: > 100 µM
NCI-H460 lung
  TGI: > 100 µM
CCRF-CEM leukemia
  TGI: > 100 µM
SNB-19 CNS
  TGI: > 100 µM
MDA-MB-231 breast
  TGI: > 100 µM
U251 CNS
  TGI: > 100 µM
SW-620 colon
  TGI: > 100 µM
HOP-62 NSCLC
  TGI: > 100 µM
HOP-92 NSCLC
  TGI: > 100 µM
